Tests used:
[1] = target: T1, N-acylethanolamine acid amidase (NAAA) (Rattus norvegicus, UniProt Q5KTC7); assay: C17:[…] FAE hydrolysis by HPLC-MS in crude protein of carmofur-treated HEK293-rNAAA cells; dialysis reversibility test; format: cell-based
T1 construct: rat NAAA overexpressed in HEK293 cells (HEK293-rNAAA), crude protein
T1 sequence (Q5KTC7 34-130): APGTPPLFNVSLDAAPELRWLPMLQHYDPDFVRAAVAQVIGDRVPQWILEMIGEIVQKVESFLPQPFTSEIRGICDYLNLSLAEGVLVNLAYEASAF
T1 sequence (Q5KTC7 131-362): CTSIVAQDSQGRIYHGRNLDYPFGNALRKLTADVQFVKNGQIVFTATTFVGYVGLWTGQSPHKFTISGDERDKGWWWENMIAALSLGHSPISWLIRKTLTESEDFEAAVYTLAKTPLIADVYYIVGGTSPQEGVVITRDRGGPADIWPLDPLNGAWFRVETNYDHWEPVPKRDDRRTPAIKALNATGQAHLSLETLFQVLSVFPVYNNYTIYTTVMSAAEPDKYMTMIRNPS

[2] = target: T2, fatty acid amide hydrolase (FAAH) (Rattus norvegicus, UniProt P97612); assay: AEA hydrolysis by HPLC-MS in crude protein of carmofur-treated HEK293-rFAAH cells; dialysis reversibility test; format: cell-based
T2 construct: rat FAAH overexpressed in HEK293 cells (HEK293-rFAAH), crude protein
T2 sequence (P97612 1-579): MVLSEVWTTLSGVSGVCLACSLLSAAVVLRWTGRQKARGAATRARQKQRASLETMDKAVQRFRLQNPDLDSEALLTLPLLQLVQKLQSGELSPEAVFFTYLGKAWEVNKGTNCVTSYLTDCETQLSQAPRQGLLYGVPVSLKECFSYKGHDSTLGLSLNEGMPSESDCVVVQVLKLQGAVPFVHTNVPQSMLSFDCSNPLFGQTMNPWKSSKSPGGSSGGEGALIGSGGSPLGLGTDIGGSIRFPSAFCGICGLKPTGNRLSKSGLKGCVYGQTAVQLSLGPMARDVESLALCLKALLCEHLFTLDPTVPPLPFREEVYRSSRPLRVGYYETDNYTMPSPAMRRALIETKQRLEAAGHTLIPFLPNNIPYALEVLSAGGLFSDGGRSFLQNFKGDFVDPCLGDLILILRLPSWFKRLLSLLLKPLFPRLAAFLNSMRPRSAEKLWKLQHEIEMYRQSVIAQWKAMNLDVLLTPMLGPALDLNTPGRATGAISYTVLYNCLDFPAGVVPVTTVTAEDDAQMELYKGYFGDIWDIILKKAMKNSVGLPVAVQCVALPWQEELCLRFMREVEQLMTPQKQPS

IC50 [1]: 710 ± 54 nM
IC50 [2]: 110 ± 25 nM
SMILES: CCCCCCNC(=O)n1cc(F)c(=O)[nH]c1=O [carmofur]

From paper PMC6659393, “A New Use for an Old Drug: Carmofur Attenuates Lipopolysaccharide (LPS)-Induced Acute Lung Injury via Inhibition of FAAH and NAAA Activities” (Frontiers in Pharmacology, 2019)
